From PMC7534330, “UHPLC-MS/MS method for pharmacokinetic and bioavailability determination of five bioactive components in raw and various processed products of Polygala tenuifolia in rat plasma” (Pharmaceutical Biology, 2020)
Where two headings read alike, the source gives them in different places.

How the values were obtained:
[1] = Pharmacokinetics of five components in rat plasma after oral administration of RPT, LPT and HPT extracts (UHPLC-MS/MS); settings: male, SD, in vivo, 1.9 g/kg, rat plasma, mean ± SD; for AUC(0-t): n = 6, read-out: AUC0-t; for AUC(0-inf): n = 6, read-out: AUC0-∞; for Cmax: n = 6, read-out: Cmax; for MRT last: n = 6, read-out: MRT0-t; for Tmax: n = 6, read-out: Tmax; for half-life: n = 6, read-out: t1/2 (converted)
Experimental: A Thermo Hypersil Gold C18 column (3.0 × 100 mm, i.d.; 3 μm) was used for chromatographic separation. An aqueous 10 mM ammonium acetate solution (A) and acetonitrile (B) were selected as the mobile phase components. The optimal gradient program involved the following steps: 5% B (0–1 min), changing to 85% B (1–3.5 min), 85% B (3.5–4.0 min), changing to 5% B (4.0–4.1 min) and 5% B (4.1–5.0 min). The flow rate was set to 0.4 mL/min, the autosampler was maintained at 4 °C and the injection volume was 5 μL.
UHPLC-MS/MS was conducted by an Applied Biosystems (AB) Sciex Exion LC system (Foster City, CA) connected to a 6500 + triple quad tandem mass spectrometer with an electrospray ionization source. All detection and quantifications were carried out in positive multiple reaction monitoring (MRM) mode. The optimized parameters were programmed as follows: ion source temperature, 500 °C; curtain gas pressure, 30 kPa; ion source gas 1 pressure, 55 kPa; ion source gas 2 pressure, 55 kPa; and ion spray voltage, […]. The chemical structures and ion mass spectra of targeted compounds are shown in Figure 1. The precursor ion and product ion were m/z 517.1 → 174.9 for A5, m/z 547.0 → 204.9 for A6, m/z 753.2 → 205.2 for DSS, m/z 681.3 → 443.3 for TFSA, m/z 236.8 → 103.2 for TMCA and m/z 136.9 → 92.9 for IS. All data were acquired by using AB Sciex Analyst software (version 1.6.3).
After thawing the frozen blood samples at room temperature, a 100 μL aliquot of plasma was spiked with 50 μL of the IS working solution in 2 mL EP tubes, and 750 μL of methanol was added into each of the tubes. Then, these tubes were mixed on a multi-tube Vortexer for 0.5 min before centrifugation at 11,800×g for 10 min. Finally, 200 μL of the obtained supernatant was transferred to a fresh autosampler vial, and then 5 μL of the sample was injected for analysis.
Male SD rats were randomly divided into four groups (n = 6 in each group), including the RPT group, LPT group, HPT group and control group. All oral administration samples were mixed with 0.5% CMC-Na (w/v) and then given to rats at a dose equivalent to 1.9 g/kg of RPT extract. The control group was orally treatment with equal volume of 0.5% CMC-Na solution. After a single administration, all blood samples were collected from the orbital vein into heparinized centrifuge tubes before administration (0 h) and at 0.083, 0.17, 0.25, 0.5, 0.75, 1, 1.5, 2, 3, 5, 8 and 12 h after administration and then centrifuged at 4 °C and 11,800×g for 10 min. The separated supernatant samples were preserved at −80 °C until they were measured.
The elementary pharmacokinetic parameters of plasma samples were analyzed by DAS 2.0 pharmacokinetic software. One-way analysis of variance (ANOVA) was used for statistical comparison for pharmacokinetic and interaction studies. A p-value < 0.05 indicated a significant difference. The main parameters considered were as follows: AUC0–∞ (the area under the blood concentration-time curve from zero to infinity initial plasma concentration), MRT (the mean residence time), Cmax (peak plasma concentration) and Tmax (time to reach Cmax for oral dose), t1/2 (elimination half-life) (He et al. [2015]). The absolute bioavailability (F) was evaluated as follows: F(%)=(AUCoral×Dosei.v.)/(AUCi.v.×Doseoral)×100%

[2] = Stability of the five analytes in rat plasma; format: in vitro ADME; settings: rat plasma, n = 6; for Long-term stability, Mean: 4 weeks at −80 °C; for Short-term stability, Mean: 5 h at room temperature (25 °C); for Auto-sampler stability, Mean: 24 h in the autosampler at 4 °C; for Freeze-thaw stability, Mean: three freeze-thaw cycles from −20 °C to room temperature
Experimental: Stock standards of A5, A6, DSS, TFSA, TMCA and IS were prepared in methanol at a concentration of 1 mg/mL. A series of working standard solutions of the targeted compounds ranging from 10 to 20,000 ng/mL and the IS solution at 600 ng/mL were prepared by diluting the stock solutions with methanol and maintained at −20 °C. Calibration standards were freshly prepared by spiking the series of standard solutions (30 μL) including the IS into blank rat plasma (270 μL) to achieve concentrations of 1, 10, 50, 100, 500, 1000, 1600 and 2000 ng/mL. Quality control (QC) samples were prepared independently at low (2 ng/mL), medium (600 ng/mL) and high (1600 ng/mL) concentrations following the same method for the five compounds.
Stability studies included short-term stability (5 h at room temperature, i.e. 25 °C), freeze-thaw stability (three consecutive freeze-thaw cycles from −20 °C to room temperature), autosampler stability (24 h storage in the autosampler at 4 °C) and long-term stability (4 weeks storage at −80 °C). The stability data of all analytes are presented in Supplementary Table S4.

[3] = oral HPT extract equivalent to 1.9 g/kg of RPT extract
[4] = oral LPT extract equivalent to 1.9 g/kg of RPT extract

COc1cc(C=CC(=O)O)cc(OC)c1OC [TMCA, 3,4,5-trimethoxycinnamic acid]
AUC(0-t) [1, 3]: 124 ± 41.3 ng·h/mL
AUC(0-inf) [1, 3]: 184 ± 137 ng·h/mL
Cmax [1, 3]: 63.2 ± 14.2 ng/mL
MRT last [1, 3]: 4.19 ± 0.91 h
Tmax [1, 3]: 4.2 ± 1.2 min
half-life [1, 3]: 3.73 ± 2.34 h
AUC(0-t) [1, 4]: 135 ± 33.4 ng·h/mL
AUC(0-inf) [1, 4]: 173 ± 40.4 ng·h/mL
Cmax [1, 4]: 80.7 ± 11.1 ng/mL
MRT last [1, 4]: 3.56 ± 0.25 h
Tmax [1, 4]: 6 ± 2.4 min
half-life [1, 4]: 6.82 ± 1.82 h
AUC(0-t) ([1]; oral RPT extract 1.9 g/kg): 91.7 ± 29.1 ng·h/mL
AUC(0-inf) ([1]; oral RPT extract 1.9 g/kg): 132 ± 33.4 ng·h/mL
Cmax ([1]; oral RPT extract 1.9 g/kg): 38.8 ± 13.8 ng/mL
MRT last ([1]; oral RPT extract 1.9 g/kg): 4.37 ± 0.53 h
Tmax ([1]; oral RPT extract 1.9 g/kg): 7.8 ± 3 min
half-life ([1]; oral RPT extract 1.9 g/kg): 6.93 ± 2.96 h
Long-term stability, Mean ([2]; 2 ng/mL): 98.3%
Short-term stability, Mean ([2]; 2 ng/mL): 96.2%
Auto-sampler stability, Mean ([2]; 2 ng/mL): 96.3%
Freeze-thaw stability, Mean ([2]; 2 ng/mL): 95.3%
Long-term stability, Mean ([2]; 600 ng/mL): 95.5%
Short-term stability, Mean ([2]; 600 ng/mL): 98.3%
Auto-sampler stability, Mean ([2]; 600 ng/mL): 99.8%
Freeze-thaw stability, Mean ([2]; 600 ng/mL): 97.3%
Long-term stability, Mean ([2]; 1600 ng/mL): 95.8%
Short-term stability, Mean ([2]; 1600 ng/mL): 102.5%
Auto-sampler stability, Mean ([2]; 1600 ng/mL): 99.5%
Freeze-thaw stability, Mean ([2]; 1600 ng/mL): 98.8%
